Data: publication PMC10303271, “Synthesis and Receptor Binding Studies of α5 GABAAR Selective Novel Imidazodiazepines Targeted for Psychiatric and Cognitive Disorders” (Molecules, 2023)

Legend:
HCA2 = biological target: T1, HCA2 (Homo sapiens, UniProt Q8TDS4); experiment: PDSP primary binding HCA2; conditions: primary binding, 10,000 nM; last figure of the line = mean of the 4 before it; read-out: HCA2, PDSP raw data, mean
T1 construct: purchased NIMH Psychoactive Drug Screening Program (PDSP)
Description: (§1) To determine if any off-target receptor-binding effects are present, all the novel ligands were sent to the National Institute of Mental Health (NIMH), Psychoactive Drug Screening Program (PDSP). The ligands were screened over a panel of 47 receptors, ion channels, and transporters to determine any other possible interactions with […]. The hERG-binding was also determined. […] No binding of the test compounds to calcium channels was observed. […] It is necessary to screen the compounds for hERG-binding during the early process of drug discovery. The unintentional binding of many drugs to hERG can cause blockade of hERG K+ channels in the heart, which can cause many side effects including cardiac arrhythmias and sudden death. […] All of the α5 imidazodiazepines were tested for hERG-binding.
(§2) The NIMH PDSP assay protocol book [https://kidbdev.med.unc.edu/databases/PDSP%20Protocols%20II%202013-03-28.pdf accessed on 23 April 2023]. describes the protocols for primary and secondary radio-ligand binding assays. These assays were carried out in a final volume of 125 µL per well in the appropriate binding buffer.
(§3) The binding of a ligand to a receptor, ion channel, or transporter was determined in the […] of 10 µM of the appropriate reference compound. […] Plates were incubated in the dark for 90 min at rt, and the reactions were stopped by vacuum filtration onto 0.3% polyethyleneimine (PEI) soaked 96-well filter mats using a 96-well Filtermateharvester. This was followed by three washes with cold PBS buffer. Radioactivity was then counted on a Microbeta counter. Nonlinear regression was used to analyze the data with N = 6 replicates.

NTS1 = biological target: T2, NTS1 (Homo sapiens, UniProt P30989); experiment: PDSP primary binding NTS1; conditions: primary binding, 10,000 nM; last figure of the line = mean of the 4 before it; read-out: NTS1, PDSP raw data, mean
T2 construct: purchased NIMH Psychoactive Drug Screening Program (PDSP)
T2 sequence (P30989 whole entry): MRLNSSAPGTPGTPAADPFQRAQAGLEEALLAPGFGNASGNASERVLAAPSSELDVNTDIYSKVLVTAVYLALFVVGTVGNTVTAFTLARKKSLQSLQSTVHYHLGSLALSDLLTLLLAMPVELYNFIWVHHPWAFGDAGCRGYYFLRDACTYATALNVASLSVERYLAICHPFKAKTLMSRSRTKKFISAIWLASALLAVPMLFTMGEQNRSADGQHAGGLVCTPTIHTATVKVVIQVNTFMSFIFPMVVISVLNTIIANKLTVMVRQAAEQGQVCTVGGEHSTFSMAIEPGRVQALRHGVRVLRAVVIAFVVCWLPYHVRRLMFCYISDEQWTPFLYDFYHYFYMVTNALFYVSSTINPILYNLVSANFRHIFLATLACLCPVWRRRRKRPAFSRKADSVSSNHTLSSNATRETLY
Description: as §1, §2, §3

Alpha4Beta2 = biological target: T3, Alpha4Beta2 (Rattus norvegicus, UniProt P09483+P12390); experiment: PDSP primary binding Alpha4Beta2; conditions: primary binding, 10,000 nM; last figure of the line = mean of the 4 before it; read-out: Alpha4Beta2, PDSP raw data, mean
T3 construct: purchased NIMH Psychoactive Drug Screening Program (PDSP)
T3 sequence (P09483 31-630): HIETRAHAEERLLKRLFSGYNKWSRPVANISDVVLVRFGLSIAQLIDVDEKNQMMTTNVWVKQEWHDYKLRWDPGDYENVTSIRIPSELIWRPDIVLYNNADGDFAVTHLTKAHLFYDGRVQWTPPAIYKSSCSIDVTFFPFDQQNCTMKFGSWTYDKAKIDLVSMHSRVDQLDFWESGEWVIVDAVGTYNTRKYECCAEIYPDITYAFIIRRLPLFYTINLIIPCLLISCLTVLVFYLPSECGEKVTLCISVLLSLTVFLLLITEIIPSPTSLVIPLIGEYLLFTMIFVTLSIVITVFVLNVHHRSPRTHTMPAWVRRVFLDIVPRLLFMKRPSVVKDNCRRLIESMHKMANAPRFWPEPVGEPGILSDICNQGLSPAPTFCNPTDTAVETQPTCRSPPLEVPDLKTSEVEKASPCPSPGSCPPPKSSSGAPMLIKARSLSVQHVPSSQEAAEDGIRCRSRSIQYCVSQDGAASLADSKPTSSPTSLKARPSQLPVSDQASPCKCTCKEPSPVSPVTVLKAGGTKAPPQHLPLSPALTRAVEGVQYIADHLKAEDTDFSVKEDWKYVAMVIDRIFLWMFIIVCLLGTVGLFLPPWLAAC
T3 sequence (P12390 25-500): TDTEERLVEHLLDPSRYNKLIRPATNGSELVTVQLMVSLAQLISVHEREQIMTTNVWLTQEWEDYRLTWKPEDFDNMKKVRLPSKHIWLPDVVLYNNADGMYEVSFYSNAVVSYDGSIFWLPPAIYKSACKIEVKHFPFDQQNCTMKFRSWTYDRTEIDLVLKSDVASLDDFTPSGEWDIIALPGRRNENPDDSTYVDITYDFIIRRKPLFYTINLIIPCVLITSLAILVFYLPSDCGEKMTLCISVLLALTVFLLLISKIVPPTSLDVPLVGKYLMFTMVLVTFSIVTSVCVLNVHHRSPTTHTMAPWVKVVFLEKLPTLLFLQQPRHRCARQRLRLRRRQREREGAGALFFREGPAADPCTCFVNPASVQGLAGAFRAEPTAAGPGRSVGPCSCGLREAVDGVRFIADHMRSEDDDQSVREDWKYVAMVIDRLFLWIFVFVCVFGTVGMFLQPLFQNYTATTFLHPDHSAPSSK
Description: as §1, §2, §3

Alpha3Beta4 = biological target: T4, Alpha3Beta4 (Rattus norvegicus, UniProt P04757+P12392); experiment: PDSP primary binding Alpha3Beta4; conditions: primary binding, 10,000 nM; last figure of the line = mean of the 4 before it; read-out: Alpha3Beta4, PDSP raw data, mean
T4 construct: purchased NIMH Psychoactive Drug Screening Program (PDSP)
T4 sequence (P04757 26-499): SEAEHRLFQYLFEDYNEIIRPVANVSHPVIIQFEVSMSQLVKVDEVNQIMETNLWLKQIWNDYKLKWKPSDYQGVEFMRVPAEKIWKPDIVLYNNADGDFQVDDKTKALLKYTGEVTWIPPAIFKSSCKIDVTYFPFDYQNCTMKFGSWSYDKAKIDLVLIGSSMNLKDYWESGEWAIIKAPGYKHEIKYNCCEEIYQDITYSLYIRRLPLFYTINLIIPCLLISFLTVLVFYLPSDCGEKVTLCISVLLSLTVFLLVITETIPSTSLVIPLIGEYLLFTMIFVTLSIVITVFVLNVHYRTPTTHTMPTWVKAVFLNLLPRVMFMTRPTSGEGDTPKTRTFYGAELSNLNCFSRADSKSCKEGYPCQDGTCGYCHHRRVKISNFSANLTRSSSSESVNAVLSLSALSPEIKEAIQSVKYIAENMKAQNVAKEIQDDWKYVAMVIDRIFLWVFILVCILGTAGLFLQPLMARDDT
T4 sequence (P12392 21-495): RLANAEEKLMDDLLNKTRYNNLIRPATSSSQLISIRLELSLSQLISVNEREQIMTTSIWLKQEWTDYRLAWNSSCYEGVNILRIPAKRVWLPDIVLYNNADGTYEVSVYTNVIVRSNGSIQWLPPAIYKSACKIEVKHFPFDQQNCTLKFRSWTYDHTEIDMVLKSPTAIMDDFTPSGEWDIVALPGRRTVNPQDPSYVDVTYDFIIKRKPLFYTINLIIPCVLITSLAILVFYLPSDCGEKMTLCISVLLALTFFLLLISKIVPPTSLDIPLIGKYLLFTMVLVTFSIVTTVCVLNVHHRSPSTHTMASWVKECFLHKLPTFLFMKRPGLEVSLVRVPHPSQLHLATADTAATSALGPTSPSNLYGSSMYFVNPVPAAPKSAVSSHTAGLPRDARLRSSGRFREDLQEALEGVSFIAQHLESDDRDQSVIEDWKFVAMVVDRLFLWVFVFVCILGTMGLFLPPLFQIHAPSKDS
Description: as §1, §2, §3

BZP rat brain site = experiment: PDSP binding at BZP rat brain site; conditions: for Ki: N = 2, read-out: Binding Affinity BZR Secondary Screening Ki; for Ki / Binding Affinity BZR % Inhibition (Primary): rat brain; for Binding Affinity BZR % Inhibition (Primary): at 10,000 nM, N = 5
Description: The BZR binding affinity of the test compounds was also measured using rat brain BzR. […] The efficacy of imidazodiazepines on the benzodiazepine receptor depends on various factors, including the specific subtype of the receptor they bind to, their chemical structure, and the dose.
as §2, §3

V2 = biological target: T5, V2 (Homo sapiens, UniProt P30518); experiment: PDSP primary binding V2; conditions: primary binding, 10,000 nM; last figure of the line = mean of the 4 before it; read-out: V2, PDSP raw data, mean
T5 construct: purchased NIMH Psychoactive Drug Screening Program (PDSP)
T5 sequence (P30518 whole entry): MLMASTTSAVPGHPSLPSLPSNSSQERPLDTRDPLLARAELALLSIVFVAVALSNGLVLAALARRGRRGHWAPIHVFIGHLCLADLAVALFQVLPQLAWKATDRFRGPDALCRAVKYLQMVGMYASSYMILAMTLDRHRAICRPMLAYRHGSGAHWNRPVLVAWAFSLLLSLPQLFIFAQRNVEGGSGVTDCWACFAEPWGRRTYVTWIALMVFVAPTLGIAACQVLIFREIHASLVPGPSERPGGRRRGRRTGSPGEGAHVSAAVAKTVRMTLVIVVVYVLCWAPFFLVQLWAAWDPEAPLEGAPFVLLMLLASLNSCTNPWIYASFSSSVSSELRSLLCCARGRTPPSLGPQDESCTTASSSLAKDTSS
Description: as §1, §2, §3

H3 = biological target: T6, H3 (Homo sapiens, UniProt Q9Y5N1); experiment: PDSP primary binding H3; conditions: primary binding, 10,000 nM; last figure of the line = mean of the 4 before it; read-out: H3, PDSP raw data, mean
T6 construct: purchased NIMH Psychoactive Drug Screening Program (PDSP)
T6 sequence (Q9Y5N1 whole entry): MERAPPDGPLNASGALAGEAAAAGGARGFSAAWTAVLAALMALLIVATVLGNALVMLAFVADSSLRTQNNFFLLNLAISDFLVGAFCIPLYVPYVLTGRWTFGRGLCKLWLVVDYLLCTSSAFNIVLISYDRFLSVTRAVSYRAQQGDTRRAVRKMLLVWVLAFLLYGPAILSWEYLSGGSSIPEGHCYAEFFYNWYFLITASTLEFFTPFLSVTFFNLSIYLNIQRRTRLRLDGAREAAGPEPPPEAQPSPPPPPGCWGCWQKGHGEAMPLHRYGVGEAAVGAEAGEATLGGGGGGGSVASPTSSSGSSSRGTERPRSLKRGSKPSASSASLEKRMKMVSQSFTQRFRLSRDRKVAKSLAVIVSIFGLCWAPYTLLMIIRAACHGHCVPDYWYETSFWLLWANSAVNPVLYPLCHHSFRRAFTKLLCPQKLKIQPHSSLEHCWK
Description: as §1, §2, §3

Alpha1D = biological target: T7, Alpha1D (Homo sapiens, UniProt P25100); experiment: PDSP primary binding Alpha1D; conditions: 1.5 h; primary binding, 10,000 nM; last figure of the line = mean of the 4 before it; read-out: Alpha1D, PDSP raw data, mean
T7 construct: purchased NIMH Psychoactive Drug Screening Program (PDSP)
T7 sequence (P25100 1-572): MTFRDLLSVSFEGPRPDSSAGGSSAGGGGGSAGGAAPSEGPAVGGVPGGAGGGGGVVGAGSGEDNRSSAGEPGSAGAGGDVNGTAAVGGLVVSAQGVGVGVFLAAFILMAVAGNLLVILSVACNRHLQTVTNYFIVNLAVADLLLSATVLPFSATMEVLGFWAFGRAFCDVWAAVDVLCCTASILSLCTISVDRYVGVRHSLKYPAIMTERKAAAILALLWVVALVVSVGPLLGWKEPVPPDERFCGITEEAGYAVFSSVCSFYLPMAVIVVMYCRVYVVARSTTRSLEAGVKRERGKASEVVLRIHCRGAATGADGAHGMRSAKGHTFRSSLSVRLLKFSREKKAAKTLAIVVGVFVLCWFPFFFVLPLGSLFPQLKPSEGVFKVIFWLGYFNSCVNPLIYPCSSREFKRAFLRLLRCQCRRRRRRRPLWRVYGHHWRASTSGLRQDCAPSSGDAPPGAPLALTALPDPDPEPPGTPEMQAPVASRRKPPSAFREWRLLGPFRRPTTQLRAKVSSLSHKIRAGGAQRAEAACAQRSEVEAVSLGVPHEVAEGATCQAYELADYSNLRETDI
Description: as §1, §2, §3

H1 = biological target: T8, H1 (Homo sapiens, UniProt P35367); experiment: PDSP primary binding H1; conditions: primary binding, 10,000 nM; last figure of the line = mean of the 4 before it; read-out: H1, PDSP raw data, mean
T8 construct: purchased NIMH Psychoactive Drug Screening Program (PDSP)
T8 sequence (P35367 whole entry): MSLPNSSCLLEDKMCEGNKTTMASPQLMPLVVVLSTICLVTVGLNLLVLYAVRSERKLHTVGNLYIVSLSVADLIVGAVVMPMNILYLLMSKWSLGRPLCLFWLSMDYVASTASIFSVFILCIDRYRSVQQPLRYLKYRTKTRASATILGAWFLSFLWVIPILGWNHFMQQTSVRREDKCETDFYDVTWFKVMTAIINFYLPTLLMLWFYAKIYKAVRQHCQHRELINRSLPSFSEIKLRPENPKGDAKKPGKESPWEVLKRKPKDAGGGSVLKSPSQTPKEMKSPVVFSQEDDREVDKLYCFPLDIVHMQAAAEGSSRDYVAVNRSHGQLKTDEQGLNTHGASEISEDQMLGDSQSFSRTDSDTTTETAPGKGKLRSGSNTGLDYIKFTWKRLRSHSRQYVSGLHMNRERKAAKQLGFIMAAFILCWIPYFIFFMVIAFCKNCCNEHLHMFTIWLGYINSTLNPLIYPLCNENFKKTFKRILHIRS
Description: as §1, §2, §3

M4 D = biological target: T9, M4 D (Homo sapiens, UniProt P08173, A203G/Y113C); experiment: PDSP primary binding M4 D; conditions: primary binding, 10,000 nM; last figure of the line = mean of the 4 before it; read-out: M4 D, PDSP raw data, mean
T9 construct: purchased NIMH Psychoactive Drug Screening Program (PDSP)
T9 sequence (P08173 1-479 Y113C/A203G): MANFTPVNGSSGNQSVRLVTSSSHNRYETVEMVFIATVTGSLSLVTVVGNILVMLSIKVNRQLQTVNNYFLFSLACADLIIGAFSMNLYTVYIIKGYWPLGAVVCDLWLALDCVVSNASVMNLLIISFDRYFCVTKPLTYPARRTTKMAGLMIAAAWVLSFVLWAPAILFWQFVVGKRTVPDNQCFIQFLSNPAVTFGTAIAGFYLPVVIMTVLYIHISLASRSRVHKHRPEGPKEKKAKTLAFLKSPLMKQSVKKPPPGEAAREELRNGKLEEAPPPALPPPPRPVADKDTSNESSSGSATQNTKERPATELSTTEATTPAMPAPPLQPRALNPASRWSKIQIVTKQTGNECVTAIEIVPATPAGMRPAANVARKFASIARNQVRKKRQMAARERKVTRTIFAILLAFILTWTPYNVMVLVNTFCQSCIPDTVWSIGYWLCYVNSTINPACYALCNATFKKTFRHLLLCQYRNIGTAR
Description: as §1, §2, §3

T1 sequence (Q8TDS4 whole entry): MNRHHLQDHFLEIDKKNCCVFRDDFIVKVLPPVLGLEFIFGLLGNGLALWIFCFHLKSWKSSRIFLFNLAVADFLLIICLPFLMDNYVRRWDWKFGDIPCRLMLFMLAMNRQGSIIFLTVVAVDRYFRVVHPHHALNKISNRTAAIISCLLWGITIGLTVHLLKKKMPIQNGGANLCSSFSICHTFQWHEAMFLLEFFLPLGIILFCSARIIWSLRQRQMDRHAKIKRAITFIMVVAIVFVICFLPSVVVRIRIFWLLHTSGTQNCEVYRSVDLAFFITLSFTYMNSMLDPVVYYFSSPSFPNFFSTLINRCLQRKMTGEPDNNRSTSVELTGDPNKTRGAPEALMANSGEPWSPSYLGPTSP

Compound | inhibition at 10 µM (HCA2) [%] | inhibition at 10 µM (NTS1) [%] | inhibition at 10 µM (Alpha4Beta2) [%] | inhibition at 10 µM (Alpha3Beta4) [%] | BZP Rat Brain Site, PDSP raw data, mean (BZP rat brain site; primary binding, 10,000 nM, last figure of the line = mean of the 4 before it) [%] | inhibition at 10 µM (V2) [%] | inhibition at 10 µM (H3) [%] | inhibition at 10 µM (Alpha1D) [%] | inhibition at 10 µM (H1) [%] | inhibition at 10 µM (M4 D) [%] | Ki (BZP rat brain site) [nM] | Binding Affinity BZR % Inhibition (Primary) (BZP rat brain site) [%]
C[C@H]1N=C(c2ccccc2F)c2cc(Cl)ccc2-n2cnc(-c3nc(C4CC4)no3)c21 [Compound 38, (R)-5-(8-Chloro-6-(2′-fluorophenyl)-4-methyl-4H-benzo[f]imidazo[1,5-a][1,4]diazepin-3-yl)-3-cyclopropyl-1,2,4-oxadiazole] | -1.1 | -13.2 | 1.67 | 12.4 | 88.28 | 5.48 | 3.21 | -2.84 | 58.4 | -18.7 |  | 
CCc1noc(-c2ncn3c2CN=C(c2ccccc2F)c2cc(C4CC4)ccc2-3)n1 [Compound 44, 5-(8-Cyclopropyl-6-(2′-fluorophenyl)-4H-benzo[f]imidazo[1,5-a][1,4]diazepin-3-yl)-3-ethyl-1,2,4-oxadiazole] | -11.9 | -62.2 | -1.95 | 7.56 |  | 27.7 | 7.26 | 1.28 | 16.3 | 35.9 | 194 ± 62.7 | 96.52 ± 2.57
CCc1noc(-c2ncn3c2[C@@H](C)N=C(c2ccccc2F)c2cc(C4CC4)ccc2-3)n1 [Compound 46, (R)-5-(8-Cyclopropyl-6-(2′-fluorophenyl)-4-methyl-4H-benzo[f]imidazo[1,5-a][1,4]diazepin-3-yl)-3-ethyl-1,2,4-oxadiazole] | -17.2 | -29.8 | 4.59 | 10.4 |  | 48.4 | -6.39 | 34.9 | 33.7 | 33.1 | 3790 ± 632 | 65.25 ± 5.33
